Assay results reported in patent US20200405696A1, “INHIBITORS OF INDOLEAMINE 2,3-DIOXYGENASE AND/OR TRYPTOPHAN 2,3-DIOXYGENASE” (IDORSIA PHARMACEUTICALS LTD, priority 2018, published 2020).

Tests used:
[1] = target: T1, Recombinant full-length human IDO1 (Homo sapiens, UniProt P14902); assay: IDO1 enzymatic assay (NFK quantified by LCMS); assay type: biochemical; details: 2 nM enzyme, 5 μM L-tryptophan, pH6.5, 30 minutes pre-incubation at RT; mean values when measured multiple times; read-out: hIDO activity (IC50 in nM)
T1 construct: Recombinant full-length human IDO1 with a N-terminal hexahistidine tag; hexahistidine (His6) (N); made in house; host or cells: E. coli
T1 sequence (P14902 whole entry): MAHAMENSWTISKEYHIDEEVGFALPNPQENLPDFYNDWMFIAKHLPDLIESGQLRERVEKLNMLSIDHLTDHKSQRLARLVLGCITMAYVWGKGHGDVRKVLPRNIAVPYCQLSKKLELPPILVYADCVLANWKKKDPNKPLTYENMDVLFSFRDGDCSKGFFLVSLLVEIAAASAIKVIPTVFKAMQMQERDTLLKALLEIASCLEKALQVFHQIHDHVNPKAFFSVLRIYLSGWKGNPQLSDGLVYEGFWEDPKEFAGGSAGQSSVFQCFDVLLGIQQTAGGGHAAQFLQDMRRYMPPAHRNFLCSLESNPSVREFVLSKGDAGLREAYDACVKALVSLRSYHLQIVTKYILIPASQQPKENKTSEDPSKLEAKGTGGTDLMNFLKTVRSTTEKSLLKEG
Method in brief: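 His-tagged human IDO1 (2 nM) in pH 6.5 phosphate buffer with ascorbate, methylene blue and catalase was preincubated with compound (10 μM–0.5 nM, 0.6% DMSO) for 30 min at RT. The reaction then ran with 5 μM L-Trp for 30 min. NFK was measured by LCMS against a d5-Trp standard, and IC50 was obtained by four-parameter fit.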

[2] = target: T2, Recombinant human TDO comprising amino acids 19-407 (Homo sapiens, UniProt P48775); assay: TDO2 enzymatic assay (NFK quantified by LCMS); assay type: biochemical; details: 15 nM enzyme, 200 μM L-tryptophan, pH7, 30 minutes pre-incubation at RT; mean values when measured multiple times; read-out: hTDO activity (IC50 in nM)
T2 construct: Recombinant human TDO comprising amino acids 19-407 with a N-terminal hexahistidine tag; hexahistidine (His6) (N); made in house; host or cells: E. coli
T2 sequence (P48775 19-406 limits assumed): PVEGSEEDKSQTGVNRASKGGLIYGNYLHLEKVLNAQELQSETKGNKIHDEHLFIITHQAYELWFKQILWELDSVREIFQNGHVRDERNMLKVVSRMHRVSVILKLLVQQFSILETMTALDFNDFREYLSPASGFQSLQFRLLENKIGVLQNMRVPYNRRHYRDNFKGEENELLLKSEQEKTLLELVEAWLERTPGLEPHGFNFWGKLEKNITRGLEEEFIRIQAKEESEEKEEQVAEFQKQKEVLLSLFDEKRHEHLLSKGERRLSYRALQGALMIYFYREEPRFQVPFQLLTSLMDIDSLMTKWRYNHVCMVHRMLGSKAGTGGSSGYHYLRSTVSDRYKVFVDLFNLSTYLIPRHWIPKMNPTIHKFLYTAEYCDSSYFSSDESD
Method in brief: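 NFK formed over 30 min at RT from 200 μM L-tryptophan was measured by LCMS, normalized to d5-tryptophan, after compound (0.5 nM–10 μM, duplicates, 0.6% DMSO) was preincubated 30 min with 15 nM recombinant His-tagged TDO 19-407 in phosphate buffer pH 7. IC50 from four-parameter logistic fit; repeats averaged.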

Row | Structure (SMILES) | IC50 [1] | IC50 [2]
1 | CCNC(=O)c1ccc(-n2cc(C(O)c3c(CC)sc4cncn34)nn2)cc1 (racemic) [Example 128, rac-N-Ethyl-4-{4-[(2-ethyl-imidazo[5,1-b]thiazol-3-yl)-hydroxy-methyl]-[1,2,3]triazol-1-yl}-benzamide] | 16.5 nM | 9780 nM
2 | OCCCOc1ccc(-n2cc(C(O)c3c(C4CC4)sc4cncn34)nn2)cc1 (racemic) [Example 137, rac-3-(4-{4-[(2-Cyclopropyl-imidazo[5,1-b]thiazol-3-yl)-hydroxy-methyl]-[1,2,3]triazol-1-yl}-phenoxy)-propan-1-ol] | 11.1 nM | > 10200 nM
3 | O=C(Nc1ccc(-n2cc(C(O)c3c(C4CC4)sc4cncn34)nn2)cc1)c1ccccc1 (racemic) [Example 189, rac-N-(4-{4-[(2-Cyclopropyl-imidazo[5,1-b]thiazol-3-yl)-hydroxy-methyl]-[1,2,3]triazol-1-yl}-phenyl)-benzamide] | 30.6 nM | > 10200 nM
4 | COc1ccc(-n2nnc(C(O)c3c(C4CC4)sc4cncn34)c2I)cc1 (racemic) [Example 334, rac-(2-Cyclopropyl-imidazo[5,1-b]thiazol-3-yl)-[5-iodo-1-(4-methoxy-phenyl)-1H-[1,2,3]triazol-4-yl]-methanol] | 12.1 nM | 7280 nM
5 | COC(=O)Nc1ccc(-n2cc(C(O)c3c(C4CC4)sc4cncn34)cn2)cc1 (racemic) [Example 132, rac-(4-{4-[(2-Cyclopropyl-imidazo[5,1-b]thiazol-3-yl)-hydroxy-methyl]-pyrazol-1-yl}-phenyl)-carbamic Acid Methyl Ester] | 18.2 nM | 1770 nM
6 | C=C(C)c1sc2cncn2c1C(O)c1cn(-c2ccc(OCCCO)c(Cl)c2)nn1 (racemic) [Example 301, rac-3-(2-Chloro-4-{4-[hydroxy-(2-isopropenyl-imidazo[5,1-b]thiazol-3-yl)-methyl]-[1,2,3]triazol-1-yl}-phenoxy)-propan-1-ol] | 25.1 nM | > 10200 nM
7 | CCc1sc2cncn2c1C(O)c1cn(-c2ccc(OC)cc2)nn1 (racemic) [Example 285, rac-(2-Ethyl-imidazo[5,1-b]thiazol-3-yl)-[1-(4-methoxy-phenyl)-1H-[1,2,3]triazol-4-yl]-methanol] | 7.91 nM | 6470 nM
8 | OCCCOc1ccc(-n2cc([C@H](O)c3c(C4CC4)sc4cncn34)nn2)cc1 [Example 137a, 3-(4-{4-[(R)-(2-Cyclopropyl-imidazo[5,1-b]thiazol-3-yl)-hydroxy-methyl]-[1,2,3]triazol-1-yl}-phenoxy)-propan-1-ol] | 4.09 nM | > 10200 nM
9 | COCCNC(=O)c1ccc(-n2cc(C(O)c3c(C4CC4)sc4cncn34)nn2)cc1 (racemic) [Example 102, rac-4-{4-[(2-Cyclopropyl-imidazo[5,1-b]thiazol-3-yl)-hydroxy-methyl]-[1,2,3]triazol-1-yl}-N-(2-methoxy-ethyl)-benzamide] | 23.2 nM | > 10200 nM
10 | CN1CCCC(COc2ccc(-n3cc(C(O)c4c(C5CC5)sc5cncn45)nn3)cc2)C1 (centres unmarked) [Example 146, (2-Cyclopropyl-imidazo[5,1-b]thiazol-3-yl)-{1-[4-(1-methyl-piperidin-3-ylmethoxy)-phenyl]-1H-[1,2,3]triazol-4-yl}-methanol] | 44.4 nM | > 10200 nM
11 | O=[N+]([O-])c1cc(-n2cc(C(O)c3c(-c4ccccc4)sc4cncn34)nn2)ccc1O (racemic) [Example 250, rac-4-{4-[Hydroxy-(2-phenyl-imidazo[5,1-b]thiazol-3-yl)-methyl]-[1,2,3]triazol-1-yl}-2-nitro-phenol] | 23.8 nM | 2300 nM

The next lines start with the values.

Row | IC50 [1] | IC50 [2] | Structure (SMILES)
12 | 732 nM | > 10200 nM | N#Cc1ccc(-c2ccc(C(O)c3c(C4CC4)sc4cncn34)s2)cc1 (racemic) [Example 173, rac-4-{5-[(2-Cyclopropyl-imidazo[5,1-b]thiazol-3-yl)-hydroxy-methyl]-thiophen-2-yl}-benzonitrile]
13 | 12.7 nM | > 10200 nM | CCc1sc2cncn2c1C(O)c1cn(-c2ccc(C(=O)NCCCO)cc2)nn1 (racemic) [Example 115, rac-4-{4-[(2-Ethyl-imidazo[5,1-b]thiazol-3-yl)-hydroxy-methyl]-[1,2,3]triazol-1-yl}-N-(3-hydroxy-propyl)-benzamide]
14 | 18.7 nM | > 10200 nM | OC(c1cn(-c2ccc(OCC3CCCO3)cc2)nn1)c1c(C2CC2)sc2cncn12 (racemic) [Example 90, rac-(2-Cyclopropyl-imidazo[5,1-b]thiazol-3-yl)-{1-[4-(tetrahydro-furan-2-ylmethoxy)-phenyl]-1H-[1,2,3]triazol-4-yl}-methanol]
15 | 34 nM | > 10200 nM | OC(c1cn(-c2ccc3c(Cl)n[nH]c3c2)nn1)c1c(C2CC2)sc2cncn12 (racemic) [Example 258, rac-[1-(3-Chloro-1H-indazol-6-yl)-1H-[1,2,3]triazol-4-yl]-(2-cyclopropyl-imidazo[5,1-b]thiazol-3-yl)-methanol]
16 | 109 nM | > 10200 nM | CCc1sc2cncn2c1C(O)c1cn(-c2ccc(C(=O)N(C)CC)cc2)nn1 (racemic) [Example 124, rac-N-Ethyl-4-{4-[(2-ethyl-imidazo[5,1-b]thiazol-3-yl)-hydroxy-methyl]-[1,2,3]triazol-1-yl}-N-methyl-benzamide]
17 | 18.3 nM | > 10200 nM | OC(c1cn(-c2ccnc3ccccc23)nn1)c1c(C2CC2)sc2cncn12 (racemic) [Example 25, rac-(2-Cyclopropyl-imidazo[5,1-b]thiazol-3-yl)-(1-quinolin-4-yl-1H-[1,2,3]triazol-4-yl)-methanol]
18 | 17.1 nM | > 10200 nM | CCc1sc2cncn2c1C(O)c1cn(-c2ccc(C(=O)NCCOC)cc2)nn1 (racemic) [Example 196, rac-4-{4-[(2-Ethyl-imidazo[5,1-b]thiazol-3-yl)-hydroxy-methyl]-[1,2,3]triazol-1-yl}-N-(2-methoxy-ethyl)-benzamide]
19 | 4.31 nM | 5130 nM | Oc1ccc(-n2cc(C(O)c3c(C4CC4)sc4cncn34)nn2)cc1Cl (racemic) [Example 148, rac-2-Chloro-4-{4-[(2-cyclopropyl-imidazo[5,1-b]thiazol-3-yl)-hydroxy-methyl]-[1,2,3]triazol-1-yl}-phenol]
20 | 9.03 nM | 7880 nM | OC(c1cn(-c2ccc3[nH]ccc3c2)nn1)c1c(C2CC2)sc2cncn12 (racemic) [Example 16, rac-(2-Cyclopropyl-imidazo[5,1-b]thiazol-3-yl)-[1-(1H-indol-5-yl)-1H-[1,2,3]triazol-4-yl]-methanol]
21 | 8.09 nM | 6770 nM | CCc1sc2cncn2c1C(O)c1cn(-c2ccc(C(=O)NCc3ccco3)cc2)nn1 (racemic) [Example 123, rac-4-{4-[(2-Ethyl-imidazo[5,1-b]thiazol-3-yl)-hydroxy-methyl]-[1,2,3]triazol-1-yl}-N-furan-2-ylmethyl-benzamide]
22 | 70.4 nM | > 10200 nM | O=c1[nH]c2ccc(-n3cc(C(O)c4c(C5CC5)sc5cncn45)nn3)cc2[nH]1 (racemic) [Example 194, rac-5-{4-[(2-Cyclopropyl-imidazo[5,1-b]thiazol-3-yl)-hydroxy-methyl]-[1,2,3]triazol-1-yl}-1,3-dihydro-benzoimidazol-2-one]
